Some test systems named below: LOX IMVI melanoma; UO-31 renal; A549 NSCLC; CAKI-1 renal; NCI-H460 lung; OVCAR-3 ovarian; SNB-19 CNS; U251 CNS; BT-549 breast; OVCAR-4 ovarian; SW-620 colon.
Common to all, as to assay: inhibition of tumour cell growth, NCI panel, 48 h

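Following 48 hours of exposure in 96-well plates, responses at five concentrations were used to interpolate endpoints linearly. The concentration for 50% growth inhibition is given as GI50. TGI marks complete inhibition of growth.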

On to `CCOC(=O)C1=C(C)OC2(O)C=CC(O)=C3C(=O)N(c4ccccc4)C(=O)C312` (configuration not stated), for which the TGI in the assay on LOX IMVI melanoma is 52.9 µM; in the assay on UO-31 renal it was 65.4 µM; in the assay on A549 NSCLC it was greater than 100 µM; in the assay with CAKI-1 renal it was greater than 100 µM; in the assay on NCI-H460 lung, greater than 100 µM; with OVCAR-3 ovarian, greater than 100 µM. Besides, the TGI was 65.3 µM in the assay with SNB-19 CNS, greater than 100 µM in the assay on U251 CNS, 70.5 µM with BT-549 breast and greater than 100 µM with OVCAR-4 ovarian.
Take `NN(CC(=O)O)CC(=O)O`: the TGI with LOX IMVI melanoma, in the assay on UO-31 renal, in the assay on A549 NSCLC, with CAKI-1 renal, with NCI-H460 lung and in the assay on OVCAR-3 ovarian was greater than 100 µM throughout. Further, the TGI in the assay on SNB-19 CNS, in the assay with U251 CNS, in the assay with BT-549 breast, in the assay with OVCAR-4 ovarian and with SW-620 colon was greater than 100 µM each time.
For `CN1CCc2[nH]c3ccccc3c2C1`, the TGI with LOX IMVI melanoma, in the assay with UO-31 renal, with A549 NSCLC, in the assay on CAKI-1 renal, with NCI-H460 lung and with OVCAR-3 ovarian was greater than 100 µM throughout. Besides, the TGI in the assay on SNB-19 CNS, in the assay on U251 CNS, in the assay on OVCAR-4 ovarian and with SW-620 colon was greater than 100 µM throughout.
In the case of `Nc1ncnc2nc[nH]c12`, the TGI with LOX IMVI melanoma, with UO-31 renal, in the assay with A549 NSCLC, in the assay on CAKI-1 renal, in the assay on NCI-H460 lung and with OVCAR-3 ovarian was greater than 250 µM throughout. Moreover, the TGI in the assay with SNB-19 CNS was greater than 146 µM; with U251 CNS it was greater than 250 µM; with OVCAR-4 ovarian it was greater than 250 µM; in the assay on SW-620 colon, greater than 250 µM. Further, the GI50 with A549 NSCLC is 75.6 µM; in the assay with CAKI-1 renal, 58.9 µM; with NCI-H460 lung it was 21.3 µM; in the assay on OVCAR-3 ovarian it was 113 µM; with SNB-19 CNS, 105 µM.
For `COc1cc2c(c(O)c1OC)-c1c(cc(OC)c(OC)c1OC)CC(C)C(C)C2` (configuration not stated), the TGI in the assay on LOX IMVI melanoma, with UO-31 renal, in the assay with A549 NSCLC, in the assay with CAKI-1 renal, with NCI-H460 lung and with OVCAR-3 ovarian was greater than 100 µM throughout. In addition, the TGI with SNB-19 CNS, in the assay with U251 CNS, with BT-549 breast, with OVCAR-4 ovarian and with SW-620 colon was greater than 100 µM throughout.
As to `O=C([O-])C[n+]1ccccc1`, the TGI in the assay with LOX IMVI melanoma, with UO-31 renal, in the assay on A549 NSCLC, in the assay on CAKI-1 renal, in the assay on NCI-H460 lung and in the assay on OVCAR-3 ovarian was greater than 100 µM each time. Also, the TGI in the assay with SNB-19 CNS, in the assay with U251 CNS, in the assay with BT-549 breast, in the assay with OVCAR-4 ovarian and with SW-620 colon was greater than 100 µM throughout.
Take `CC(CCN)(CCN)[N+](=O)[O-]`: the TGI with LOX IMVI melanoma, with UO-31 renal, with A549 NSCLC, in the assay with CAKI-1 renal, in the assay on NCI-H460 lung and with OVCAR-3 ovarian was greater than 100 µM throughout. For the same compound, the TGI in the assay with SNB-19 CNS, in the assay with U251 CNS, in the assay with BT-549 breast, in the assay on OVCAR-4 ovarian and with SW-620 colon was greater than 100 µM each time.
With `CN(C)CCCSc1nc2ccccc2[nH]1`, the TGI with LOX IMVI melanoma, in the assay with UO-31 renal, in the assay with A549 NSCLC, with CAKI-1 renal, in the assay with NCI-H460 lung and with OVCAR-3 ovarian was greater than 100 µM each time. Moreover, the TGI in the assay on SNB-19 CNS, with U251 CNS, in the assay with BT-549 breast, with OVCAR-4 ovarian and in the assay with SW-620 colon was greater than 100 µM in each case.
Regarding `CCCCCCCCCCCCCCCCCCOc1ccccc1CC(=O)OCC[N+]1(C)CCCCC1`, the GI50 with LOX IMVI melanoma was 1750 nM; in the assay with UO-31 renal it was 4.14 µM; in the assay with CAKI-1 renal it was 1.74 µM; in the assay on NCI-H460 lung it was 2.34 µM; in the assay on SNB-19 CNS it was 2.05 µM; with BT-549 breast, 2650 nM. In addition, the GI50 in the assay with OVCAR-4 ovarian is 2810 nM. For the same compound, the TGI in the assay with LOX IMVI melanoma came to 3.18 µM; in the assay on UO-31 renal, 19.7 µM; in the assay on CAKI-1 renal it was 4.87 µM; in the assay with NCI-H460 lung, 5.43 µM; with SNB-19 CNS, 4.94 µM; with BT-549 breast it was 7.1 µM. In the assay on OVCAR-4 ovarian, this compound had a TGI of 10.5 µM.
`O=C(O)c1cc([N+](=O)[O-])cc2c(=O)c3cnccc3[nH]c12`: the TGI in the assay with UO-31 renal, in the assay with CAKI-1 renal, in the assay on NCI-H460 lung, with OVCAR-3 ovarian, in the assay on SNB-19 CNS and in the assay on U251 CNS was greater than 100 µM throughout. The TGI with BT-549 breast and with OVCAR-4 ovarian was greater than 100 µM throughout.
Take `CN1CCOC(c2ccc(Cl)cc2)O1` (configuration not stated): the TGI in the assay on UO-31 renal, in the assay on A549 NSCLC, with CAKI-1 renal, in the assay with NCI-H460 lung, with OVCAR-3 ovarian and in the assay on SNB-19 CNS was greater than 100 µM throughout. The TGI in the assay with U251 CNS, in the assay with BT-549 breast, in the assay on OVCAR-4 ovarian and with SW-620 colon was greater than 100 µM throughout.
For `O=C(Nc1ccc(Cl)cc1)c1cc2cc(N=Nc3ccccc3Cl)ccc2oc1=O`, the TGI was 39.3 µM in the assay on UO-31 renal; greater than 100 µM in the assay with A549 NSCLC; greater than 100 µM in the assay on CAKI-1 renal; greater than 100 µM in the assay on NCI-H460 lung; 75.6 µM with OVCAR-3 ovarian; greater than 100 µM in the assay on SNB-19 CNS. The TGI was 51 µM in the assay on U251 CNS, greater than 100 µM in the assay with OVCAR-4 ovarian and greater than 100 µM in the assay on SW-620 colon.
Consider `CN(CCCCCl)P(=O)(OCc1ccc([N+](=O)[O-])o1)OC[C@H]1O[C@@H](n2cc(F)c(=O)[nH]c2=O)C[C@@H]1O` (some centres not stated), for which the TGI with LOX IMVI melanoma was 12.9 µM; in the assay with UO-31 renal, greater than 100 µM; with A549 NSCLC it was greater than 26.4 µM; in the assay with NCI-H460 lung, 45.5 µM; in the assay on OVCAR-3 ovarian it was 19.1 µM; with SNB-19 CNS it was greater than 55.3 µM. The TGI in the assay on U251 CNS was 34.6 µM; in the assay on BT-549 breast, 49.1 µM; with OVCAR-4 ovarian it was 33.5 µM; with SW-620 colon, greater than 81.8 µM.
Turning to `CCOc1ccc(NC(=O)C(=O)CC(=O)c2sc(NNC(C)=O)nc2C)cc1`, the TGI with LOX IMVI melanoma, with UO-31 renal, in the assay with A549 NSCLC, in the assay with CAKI-1 renal, in the assay with NCI-H460 lung and in the assay with SNB-19 CNS was greater than 100 µM throughout. For the same compound, the TGI in the assay on U251 CNS, with OVCAR-4 ovarian and with SW-620 colon was greater than 100 µM throughout.
In the case of `C[C@]12C=CC(=O)C=C1CC[C@@H]1[C@@H]2CC[C@]2(C)OC(=O)CC[C@@H]12`, the TGI with LOX IMVI melanoma was greater than 500 µM; in the assay on UO-31 renal it was greater than 500 µM; in the assay with A549 NSCLC it was 478 µM; in the assay with CAKI-1 renal, greater than 404 µM; in the assay on NCI-H460 lung, greater than 500 µM; with OVCAR-3 ovarian, greater than 500 µM. For the same compound, the TGI is greater than 500 µM in the assay on SNB-19 CNS; greater than 500 µM in the assay with U251 CNS; greater than 500 µM with BT-549 breast; greater than 500 µM in the assay on OVCAR-4 ovarian; greater than 496 µM in the assay on SW-620 colon.
`CC(C)=CCC/C(C)=C/CC/C(C)=C/CC/C(C)=C/C=C/C=C(\C)CC/C=C(\C)CC/C=C(\C)CCC=C(C)C`: the TGI in the assay on LOX IMVI melanoma is 49.9 µM; in the assay on UO-31 renal, 54.8 µM; in the assay on A549 NSCLC, greater than 100 µM; with CAKI-1 renal, 32.1 µM; with NCI-H460 lung, greater than 58.4 µM; with OVCAR-3 ovarian it was greater than 100 µM. Besides, the TGI with SNB-19 CNS, with U251 CNS, in the assay on BT-549 breast, in the assay with OVCAR-4 ovarian and with SW-620 colon was greater than 100 µM throughout.

The record behind these values is PubChem BioAssay (NCI).
